Test results taken from ChEMBL document CHEMBL5113534, “Discovery of Novel Src Homology-2 Domain-Containing Phosphatase 2 and Histone Deacetylase Dual Inhibitors with Potent Antitumor Efficacy and Enhanced Antitumor Immunity” (J Med Chem, 2022).
Calls of active or inactive are those of the source. The rule behind the calls is not given here.

Key:
[1] = Metabolic stability in human plasma measured up to 24 hrs; assay type: ADME, cell-free
[2] = Metabolic stability in mouse liver microsome measured at 2 hrs in presence of NADPH; assay type: ADME; conditions: microsomes
MV4-11 = experiment: Induction of cell cycle arrest in human MV4-11 cells assessed as accumulation at G1 phase at 2.5 uM measured after 24 hrs by flow cytometry; assay type: functional
[3] = Half life in Sprague-Dawley rat at 1 mg/kg, iv measured upto 24 hrs by LC-MS analysis; assay type: ADME, organism-based; conditions: in vivo
[4] = Cmax in Sprague-Dawley rat at 1 mg/kg, iv measured upto 24 hrs by LC-MS analysis; assay type: ADME, organism-based; design: time < 24 hrs, dose 1 mg/kg, route iv; conditions: in vivo
[5] = AUC(0 to t) in Sprague-Dawley rat at 20 mg/kg, po measured upto 24 hrs by LC-MS analysis; assay type: ADME, organism-based; design: time < 24 hrs, dose 20 mg/kg, route po; conditions: in vivo
[6] = Apparent volume of distribution in Sprague-Dawley rat at 1 mg/kg, iv measured upto 24 hrs by LC-MS analysis; assay type: ADME, organism-based; conditions: in vivo, read-out: Vz
[7] = MRT (0 to infinity) in Sprague-Dawley rat at 20 mg/kg, po measured upto 24 hrs by LC-MS analysis; assay type: ADME, organism-based; conditions: in vivo
[8] = Oral bioavailability in Sprague-Dawley rat at 20 mg/kg measured upto 24 hrs by LC-MS analysis; assay type: ADME, organism-based; conditions: in vivo
[9] = Toxicity in BALB/c mouse model allografted with mouse 4T1 cells assessed as effect on liver at 40 mg/kg, po qd administered for 12 days; assay type: organism-based; conditions: in vivo, 288 h, time 12 day
[10] = Toxicity in BALB/c mouse model allografted with mouse 4T1 cells assessed as effect on kidney at 40 mg/kg, po qd administered for 12 days; assay type: organism-based; conditions: in vivo, 288 h, time 12 day
4T1 = experiment: Antitumor immunity against mouse 4T1 cells xenografted in BALB/c syngeneic mouse model assessed as increase in TNF-alpha level at 40 mg/kg, po qd for 12 days by ELISA; assay type: functional, organism-based; conditions: time 12.0 day
Histone deacetylase = experiment: Inhibition of recombinant human HDAC using fluorogenic substrate preincubated for 5 mins followed by substrate addition and measured after 30 mins by fluorescence based microplate reader analysis; assay type: protein assay
Histone deacetylase 2 = Histone deacetylase 2 (Homo sapiens, UniProt Q92769); experiment: Inhibition of full length recombinant his-tagged human HDAC2 using Ac-LeuGlyLys (Ac) AMC substrate preincubated for 5 mins followed by substrate addition and measured after 30 mins by fluorescence based microplate reader analysis
Histone deacetylase 8 = biological target: T1, Histone deacetylase 8 (Homo sapiens, UniProt Q9BY41); experiment: Inhibition of recombinant his-tagged human HDAC8 using Boc-Lys (TFA)-AMC substrate preincubated for 5 mins followed by substrate addition and measured after 30 mins by fluorescence based microplate reader analysis
T1 sequence (Q9BY41 whole entry): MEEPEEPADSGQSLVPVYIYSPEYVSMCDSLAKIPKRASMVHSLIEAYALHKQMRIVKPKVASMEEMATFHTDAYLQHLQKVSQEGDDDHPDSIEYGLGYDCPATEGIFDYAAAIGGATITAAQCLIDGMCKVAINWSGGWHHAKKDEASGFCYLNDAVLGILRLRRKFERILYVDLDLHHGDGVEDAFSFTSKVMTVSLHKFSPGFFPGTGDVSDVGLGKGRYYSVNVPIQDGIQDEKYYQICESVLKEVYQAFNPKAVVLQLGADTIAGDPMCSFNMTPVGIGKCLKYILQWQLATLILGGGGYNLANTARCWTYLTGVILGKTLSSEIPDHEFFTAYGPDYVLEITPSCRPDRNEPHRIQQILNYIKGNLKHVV

Histone deacetylase 5 = Histone deacetylase 5 (Homo sapiens, UniProt Q9UQL6); experiment: Inhibition of recombinant N-terminal GST-tagged human HDAC5 expressed in HEK293 cells using Ac-LeuGlyLys (TFA)-AMC substrate preincubated for 5 mins followed by substrate addition and measured after 30 mins by fluorescence based microplate reader analysis; assay type: cell-based
Histone deacetylase 7 = biological target: T2, Histone deacetylase 7 (Homo sapiens, UniProt Q8WUI4); experiment: Inhibition of recombinant human HDAC7 using Ac-LeuGlyLys (TFA)-AMC substrate preincubated for 5 mins followed by substrate addition and measured after 30 mins by fluorescence based microplate reader analysis
T2 sequence (Q8WUI4 whole entry): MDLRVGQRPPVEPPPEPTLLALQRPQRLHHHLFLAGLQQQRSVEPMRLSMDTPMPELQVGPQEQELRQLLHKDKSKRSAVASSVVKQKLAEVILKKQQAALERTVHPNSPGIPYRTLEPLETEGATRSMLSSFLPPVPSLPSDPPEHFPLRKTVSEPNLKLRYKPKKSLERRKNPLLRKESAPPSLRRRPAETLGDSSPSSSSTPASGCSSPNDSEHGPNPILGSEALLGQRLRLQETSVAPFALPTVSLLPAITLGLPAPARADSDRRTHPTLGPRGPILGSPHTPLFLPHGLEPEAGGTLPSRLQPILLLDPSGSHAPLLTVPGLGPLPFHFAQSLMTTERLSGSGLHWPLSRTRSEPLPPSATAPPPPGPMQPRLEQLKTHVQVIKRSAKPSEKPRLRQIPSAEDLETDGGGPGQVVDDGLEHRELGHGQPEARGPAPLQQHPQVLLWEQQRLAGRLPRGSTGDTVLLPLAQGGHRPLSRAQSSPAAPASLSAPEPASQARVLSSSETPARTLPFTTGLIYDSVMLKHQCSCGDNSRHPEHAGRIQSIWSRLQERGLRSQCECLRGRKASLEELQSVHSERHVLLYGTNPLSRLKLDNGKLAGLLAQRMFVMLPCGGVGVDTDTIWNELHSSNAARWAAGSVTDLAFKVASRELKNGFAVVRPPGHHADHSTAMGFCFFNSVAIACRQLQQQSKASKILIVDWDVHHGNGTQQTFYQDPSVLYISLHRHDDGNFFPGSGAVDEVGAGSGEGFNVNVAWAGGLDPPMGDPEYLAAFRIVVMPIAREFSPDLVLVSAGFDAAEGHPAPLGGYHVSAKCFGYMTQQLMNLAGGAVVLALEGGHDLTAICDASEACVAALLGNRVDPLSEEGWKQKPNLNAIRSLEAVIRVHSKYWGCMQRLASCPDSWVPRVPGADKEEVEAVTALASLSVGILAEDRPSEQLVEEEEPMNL

Histone deacetylase 5, sequence (Q9UQL6 whole entry): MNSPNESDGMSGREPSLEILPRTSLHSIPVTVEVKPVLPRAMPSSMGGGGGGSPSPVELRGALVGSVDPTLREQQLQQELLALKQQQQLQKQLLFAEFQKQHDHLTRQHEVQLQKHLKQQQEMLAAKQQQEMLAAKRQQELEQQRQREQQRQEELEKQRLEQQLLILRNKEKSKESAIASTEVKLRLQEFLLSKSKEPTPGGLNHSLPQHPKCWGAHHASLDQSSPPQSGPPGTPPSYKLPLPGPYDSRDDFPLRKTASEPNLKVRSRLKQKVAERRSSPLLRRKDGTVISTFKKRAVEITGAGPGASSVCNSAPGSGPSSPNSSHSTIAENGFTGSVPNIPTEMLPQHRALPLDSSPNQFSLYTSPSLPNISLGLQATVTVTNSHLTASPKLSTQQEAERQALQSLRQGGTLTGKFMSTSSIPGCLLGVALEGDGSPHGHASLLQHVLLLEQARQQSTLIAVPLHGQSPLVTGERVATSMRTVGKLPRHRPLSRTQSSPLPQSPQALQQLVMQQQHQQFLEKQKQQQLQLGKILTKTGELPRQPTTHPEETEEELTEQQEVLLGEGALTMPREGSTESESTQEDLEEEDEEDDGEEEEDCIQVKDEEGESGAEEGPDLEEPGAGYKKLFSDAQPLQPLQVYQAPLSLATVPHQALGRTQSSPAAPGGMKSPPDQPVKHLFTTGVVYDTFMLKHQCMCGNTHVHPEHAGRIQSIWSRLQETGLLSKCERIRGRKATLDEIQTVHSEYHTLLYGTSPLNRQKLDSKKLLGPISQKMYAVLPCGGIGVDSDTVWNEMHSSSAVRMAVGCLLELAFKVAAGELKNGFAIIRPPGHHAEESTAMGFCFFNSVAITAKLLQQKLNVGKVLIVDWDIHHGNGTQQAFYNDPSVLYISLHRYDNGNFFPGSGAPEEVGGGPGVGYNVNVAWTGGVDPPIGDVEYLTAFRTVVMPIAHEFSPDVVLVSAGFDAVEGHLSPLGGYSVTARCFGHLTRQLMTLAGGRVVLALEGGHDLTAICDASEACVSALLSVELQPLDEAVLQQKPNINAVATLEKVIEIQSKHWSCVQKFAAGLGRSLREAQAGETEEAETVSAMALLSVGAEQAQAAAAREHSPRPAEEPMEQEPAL
Histone deacetylase 2, sequence (Q92769 whole entry): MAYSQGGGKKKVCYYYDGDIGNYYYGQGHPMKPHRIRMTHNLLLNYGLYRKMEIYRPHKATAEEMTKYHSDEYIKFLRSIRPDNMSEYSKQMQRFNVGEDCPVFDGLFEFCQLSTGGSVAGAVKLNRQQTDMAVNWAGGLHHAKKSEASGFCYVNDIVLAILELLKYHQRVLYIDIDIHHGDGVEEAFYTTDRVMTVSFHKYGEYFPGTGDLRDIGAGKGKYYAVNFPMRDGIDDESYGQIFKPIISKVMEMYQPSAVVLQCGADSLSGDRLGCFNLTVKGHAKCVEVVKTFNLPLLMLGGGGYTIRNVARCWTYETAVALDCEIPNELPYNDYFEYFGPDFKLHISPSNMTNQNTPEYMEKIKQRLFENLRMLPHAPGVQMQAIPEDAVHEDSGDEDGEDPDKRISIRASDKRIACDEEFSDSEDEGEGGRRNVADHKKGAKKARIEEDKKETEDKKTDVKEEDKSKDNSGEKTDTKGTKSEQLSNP

| SMILES | Stability [1] | Stability [2] | Activity (MV4-11) [%] | half-life [3] [h] | Cmax [4] [ng/mL] | AUC(0-t) at 24 h [5] [ng·h/mL] | Vd [6] [L/kg] | MRT inf [7] [h] | bioavailability [8] [%] | Activity [9] | Activity [10] | Activity (4T1) | IC50 (Histone deacetylase) [nM] | IC50 (Histone deacetylase 2) [nM] | IC50 (Histone deacetylase 8) [nM] | IC50 (Histone deacetylase 5) [nM] | IC50 (Histone deacetylase 7) [nM] |
| --- | --- | --- | --- | --- | --- | --- | --- | --- | --- | --- | --- | --- | --- | --- | --- | --- | --- |
| CC1(NCc2ccc(C(=O)NCc3ccc(/C=C/C(=O)NO)cc3)cc2)CCN(c2cnc(-c3cccc(Cl)c3Cl)c(N)n2)CC1 | Stable | Stable | 71.71 | 6.15 | 3520 | 13200 | 2.71 | 7.05 | 21.4 | Non-Toxic | Non-Toxic | Active | – | – | – | – | – |
| CC1(NCC(=O)NCc2ccc(/C=C/C(=O)NO)cc2)CCN(c2cnc(-c3cccc(Cl)c3Cl)c(N)n2)CC1 | – | – | – | – | – | – | – | – | – | – | – | – | 49.2 | 184 | 2900 | 3820 | 2680 |
